Data published in publication PMC9496321, “6-Furopyridine Hexamethylene Amiloride Is a Non-Selective P2X7 Receptor Antagonist” (Biomolecules, 2022).
One block for each compound: values may come before it.

Columns and labels:
[1] = target: T1, P2X7 (Homo sapiens, UniProt Q99572); conditions: human leukaemic lymphocytes, cited from earlier work; for inhibition of ATP-induced Na+ fluxes: 40 μM compound
T1 sequence (Q99572 1-595): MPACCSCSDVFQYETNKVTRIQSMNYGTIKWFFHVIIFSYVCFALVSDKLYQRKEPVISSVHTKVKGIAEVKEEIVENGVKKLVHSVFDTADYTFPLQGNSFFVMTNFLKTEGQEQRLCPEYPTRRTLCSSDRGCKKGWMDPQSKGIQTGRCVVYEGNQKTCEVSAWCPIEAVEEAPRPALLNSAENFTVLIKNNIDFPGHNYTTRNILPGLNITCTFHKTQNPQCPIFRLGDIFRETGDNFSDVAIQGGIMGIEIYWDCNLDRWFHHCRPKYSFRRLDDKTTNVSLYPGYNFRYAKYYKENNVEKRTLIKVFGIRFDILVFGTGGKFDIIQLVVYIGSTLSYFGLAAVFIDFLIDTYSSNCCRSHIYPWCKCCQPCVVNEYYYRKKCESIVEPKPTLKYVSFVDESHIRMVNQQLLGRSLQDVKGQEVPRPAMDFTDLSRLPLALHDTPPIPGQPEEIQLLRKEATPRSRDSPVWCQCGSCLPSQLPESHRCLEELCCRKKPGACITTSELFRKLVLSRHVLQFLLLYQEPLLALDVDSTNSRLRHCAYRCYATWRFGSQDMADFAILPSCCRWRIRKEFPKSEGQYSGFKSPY

[2] = tested on: human (h) P2X7; design: method as in PMID 9720806; conditions: 10 μM compound, HEK-hP2X7 cells; cited from earlier work
[3] = tested on: mouse (m) P2X7; design: method as in PMID 7514597; conditions: 40 μM compound, Xenopus oocytes with mP2X7 mRNA; cited from earlier work
[4] = tested on: mP2X7; design: method as in PMID 11181928; conditions: cited from earlier work
[5] = target: T2, hP2X7 (Homo sapiens, UniProt Q99572); design: method as in PMID 11181928; conditions: 16 μM BzATP; cited from earlier work
T2 construct: expressed in transfected cells; host or cells: HEK293 cells, stably transfected (HEK-hP2X7)
T2 sequence (Q99572 1-595): T1 sequence (Q99572 1-595)

[6] = target: T1, P2X7; design: endogenous in cells; conditions: human leukemic B cells, cited from earlier work
[7] = tested on: hP2X7-mediated IL-1β release; assay: Whole blood IL-1β release assay; format: cell-based; conditions: 30 μM compound, 6 mM ATP, LPS-primed human whole blood
Experimental: Whole blood IL-1β release assays were conducted as described. Briefly, whole human blood was mixed with an equal volume of serum-free RPMI-1640 medium containing LPS (200 ng/mL), added to a flat-bottom 96-well plate and incubated (37 °C, 95% air/5% CO2, 105 min). Compounds (30 μM) or vehicle (DMSO) were added to respective wells and incubated (37 °C, 95% air/5% CO2, 15 min). […] Plates were centrifuged (700× g, 10 min) with the resulting supernatants collected and stored at −80 °C. hIL-1β concentrations were determined using a Human IL-1β ELISA (Thermo Fisher Scientific) according to the manufacturer’s instructions. Samples above the detection limit (7500 pg/mL) were set at 7500 pg/mL for statistical analysis.

[8] = target: T1, P2X7; assay: ATP-induced YO-PRO-1 uptake into human T cells (PBMCs); format: cell-based; design: Human peripheral blood mononuclear cells (PBMCs) were pre-incubated with DMSO (vehicle) or 30 μM 6-FPHMA; endogenous in cells; host or cells: cryopreserved human PBMCs (CD3+, CD4+, CD8+ T cells), four donors; conditions: 30 μM compound, 1 mM ATP
Experimental: ATP-mediated uptake assays were conducted as described with either ethidium bromide or YO-PRO-1 iodide. Briefly, RPMI8226, HEK-hP2X7, HEK-mP2X7, HEK-cP2X7 or cryopreserved human peripheral blood mononuclear cells (PBMCs) were washed thrice with LDM (300× g, 5 min), resuspended in LDM and 1 × 10^6 cells were added to individual tubes. Cells were pre-incubated in the absence of compound (37 °C, 5 min) or in the presence of compound or vehicle (DMSO) (37 °C, 15 min) as indicated. […] An equal volume of ice-cold Mg^2+ stop solution was added and cells centrifuged (300× g, 5 min). Cells were washed twice in LDM (300× g, 5 min), resuspended and data were collected with an LSR Fortessa X-20 flow cytometer. MFI of ethidium^+ or YO-PRO-1^2+ was determined using FlowJo.

[9] = target: T3, endogenous hP2X7 (Homo sapiens, UniProt Q99572); assay: ATP-induced ethidium+ uptake in RPMI8226 multiple myeloma cells (flow cytometry); format: cell-based; conditions: any concentration up to 30 μM, 300 μM ATP, RPMI8226 cells
T3 construct: endogenous in cells; host or cells: RPMI8226 cells
T3 sequence (Q99572 1-595): T1 sequence (Q99572 1-595)

[10] = target: T2, hP2X7; assay: ATP-induced ethidium+ uptake in stably transfected HEK-hP2X7 cells (flow cytometry); format: cell-based; conditions: any concentration up to 30 μM, 450 μM ATP, HEK-hP2X7 cells
[11] = target: T1, P2X7; assay: Plate-based flow cytometric YO-PRO-1 dye uptake compound screen in RPMI8226 cells; format: cell-based; design: endogenous in cells; host or cells: RPMI8226 cells; conditions: 5 μM compound, 250 μM ATP; also previous studies
Experimental: RPMI8226 cells were washed thrice with low-divalent medium (LDM) (145 mM NaCl, 2 mM KCl, 0.2 mM CaCl2, 13 mM D-glucose and 10 mM HEPES, pH 7.5) and 1 × 10^5 cells were added to each well of a 96-well flat-bottomed plate. Amiloride derivatives, at 10 μM (final concentration 5 μM) or vehicle (DMSO) were added, and plates pre-incubated (37 °C, 15 min). […] Wells were washed twice with LDM (300× g, 5 min) and cells were resuspended in LDM. Data was acquired with an Attune NxT Flow Cytometer an Autosampler (Thermo Fisher Scientific). Mean fluorescent intensity (MFI) of YO-PRO-1^+ uptake was determined using FlowJo.

SMILES: NC(N)=NC(=O)c1nc(Cl)c(N2CCCCCC2)nc1N [HMA, 5-(N,N-hexamethylene) amiloride]
inhibition of ATP-induced Na+ fluxes [1]: 95%
inhibition of BzATP-induced inward currents [2]: 30%
inhibition of ATP- and BzATP-induced currents [3]: partially inhibited
effect on mP2X7-mediated dye uptake at low BzATP ([4]; 16 μM BzATP): potentiated
potency of inhibition of BzATP-induced uptake, mP2X7 compared to hP2X7 ([4]; HEK293 cells): reduced potency
potentiation of dye uptake at low BzATP, hP2X7 [5]: not observed
inhibition of ATP-induced ethidium+ uptake ([6]; 20 μM compound): 50%
concentration required for complete inhibition of ATP-induced ethidium+ uptake [6]: > 100 µM

SMILES: O=C(NCC1(N2CCN(c3ccccc3)CC2)CCOCC1)c1cccnc1Sc1ccccc1 [JNJ-47965567]
reduction of ATP-induced IL-1β compared to vehicle control [7]: 98 ± 1%
reduction of ATP-induced YO-PRO-1 uptake into CD3+ T cells [8]: 79 ± 14%
reduction of ATP-induced YO-PRO-1 uptake into CD4+ T cells [8]: 78 ± 15%
reduction of ATP-induced YO-PRO-1 uptake into CD8+ T cells [8]: 80 ± 11%

reduction of ATP-induced YO-PRO-1 uptake into CD3+ T cells [8]: 90 ± 8%
reduction of ATP-induced YO-PRO-1 uptake into CD4+ T cells [8]: 83 ± 17%
reduction of ATP-induced YO-PRO-1 uptake into CD8+ T cells [8]: 72 ± 22%
SMILES: CCOc1ccc(Nc2ccc(/C(=C3C=C/C(=[N+](/CC)Cc4cccc(S(=O)(=O)[O-])c4)C=C/3C)c3ccc(N(CC)Cc4cccc(S(=O)(=O)O)c4)cc3C)cc2)cc1 [BBG, Brilliant Blue G]
reduction of ATP-induced IL-1β compared to vehicle control [7]: did not alter

SMILES: CCN(c1nc(N)c(C(=O)N=C(N)N)nc1Cl)C(C)C [EIPA, 5-(N-ethyl-N-isopropyl) amiloride]
inhibition of ATP-induced Na+ fluxes [1]: 72%

SMILES: Cc1nc(N=Nc2ccc(S(=O)(=O)O)cc2S(=O)(=O)O)c(COP(=O)(O)O)c(C=O)c1O [PPADS, Pyridoxalphosphate-6-azophenyl-2′,4′-disulfonic acid]
reduction of ATP-induced IL-1β compared to vehicle control [7]: did not alter
reduction of ATP-induced YO-PRO-1 uptake into CD3+ T cells [8]: 85 ± 9%
reduction of ATP-induced YO-PRO-1 uptake into CD4+ T cells [8]: 85 ± 11%
reduction of ATP-induced YO-PRO-1 uptake into CD8+ T cells [8]: 86 ± 7%

inhibition of hP2X7-mediated dye uptake [9]: did not inhibit
inhibition of hP2X7-mediated dye uptake [10]: did not inhibit
SMILES: N=C(N)NC(=O)c1nc(-c2cc3cnccc3o2)c(N)nc1N [6-FPA, 6-furopyridine-substituted amiloride]

block of hP2X7 in screening assay [11]: blocks hP2X7 relatively poorly
SMILES: N=C(N)NC(=O)c1nc(Cl)c(N)nc1N [Amiloride]
inhibition of ATP-mediated Na+ fluxes ([1]; 1 mM compound): 50%
